“And” between values parts separate entries of the source, which are not always exact repeats. Identical values can stand only once. The source made the active and inactive calls.
Assays:
[1] = target: T1, Tyrosine-protein phosphatase non-receptor type 7 (Homo sapiens, UniProt P35236); experiment: HePTP tyrosine phosphatase activity blockers – biochemical, absorbance, leukemia target, primary screen (AID 521); assay type: functional
T1 sequence (P35236 whole entry): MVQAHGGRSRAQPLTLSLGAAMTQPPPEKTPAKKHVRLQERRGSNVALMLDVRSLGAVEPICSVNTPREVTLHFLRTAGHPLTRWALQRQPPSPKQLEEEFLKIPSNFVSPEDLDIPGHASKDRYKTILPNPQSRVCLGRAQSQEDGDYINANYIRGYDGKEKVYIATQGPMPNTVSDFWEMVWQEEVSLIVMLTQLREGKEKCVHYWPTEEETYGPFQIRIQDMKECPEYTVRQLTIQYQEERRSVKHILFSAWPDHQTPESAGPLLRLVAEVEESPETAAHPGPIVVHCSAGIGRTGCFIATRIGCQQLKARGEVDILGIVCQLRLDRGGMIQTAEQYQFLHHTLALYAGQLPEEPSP

[2] = target: Neuropeptides B/W receptor type 1 (Homo sapiens, UniProt P48145); experiment: Fluorescence-based dose response cell-based high throughput screening assay to identify antagonists of the G-protein coupled receptor 7 (GPR7). [Related pubchem assays: 1952 (Screening assay (GPR7 antagonists).), 1880 (Summary AID.)]; assay type: functional
Chain of Neuropeptides B/W receptor type 1 (P48145 whole entry): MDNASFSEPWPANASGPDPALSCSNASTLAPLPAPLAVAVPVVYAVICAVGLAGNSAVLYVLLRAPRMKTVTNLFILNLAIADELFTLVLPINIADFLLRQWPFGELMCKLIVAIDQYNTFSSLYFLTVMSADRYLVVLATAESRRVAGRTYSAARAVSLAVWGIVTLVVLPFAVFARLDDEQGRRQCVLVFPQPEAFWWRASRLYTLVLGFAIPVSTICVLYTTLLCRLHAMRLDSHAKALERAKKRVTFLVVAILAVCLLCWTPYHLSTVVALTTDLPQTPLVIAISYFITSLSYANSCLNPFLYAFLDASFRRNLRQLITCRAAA

[3] = target: Melanin-concentrating hormone receptor 1 (Homo sapiens, UniProt Q99705); experiment: Fluorescence-based counterscreen for antagonists of the G-protein coupled receptor 7 (GPR7): cell-based high throughput dose response assay to identify antagonists of the melanin-concentrating hormone receptor 1 (MCHR1).; assay type: functional
Chain of Melanin-concentrating hormone receptor 1 (Q99705 whole entry): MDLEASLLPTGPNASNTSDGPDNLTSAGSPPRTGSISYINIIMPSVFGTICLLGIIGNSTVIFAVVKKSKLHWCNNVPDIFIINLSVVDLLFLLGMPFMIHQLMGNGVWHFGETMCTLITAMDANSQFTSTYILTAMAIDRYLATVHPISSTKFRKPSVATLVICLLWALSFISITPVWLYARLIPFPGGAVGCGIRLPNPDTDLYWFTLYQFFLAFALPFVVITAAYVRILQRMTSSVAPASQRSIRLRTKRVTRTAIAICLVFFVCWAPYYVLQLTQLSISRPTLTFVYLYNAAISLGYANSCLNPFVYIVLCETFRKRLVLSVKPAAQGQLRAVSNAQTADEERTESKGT

[4] = target: Epstein-Barr nuclear antigen 1 (Epstein-Barr virus (strain B95-8) (HHV-4) (Human herpesvirus 4), UniProt P03211); experiment: inhibition of EBV nuclear antigen 1 DNA binding – biochemical, fluorescence polarization, 1536-well, dose response (AID 2381); design: species or system human gammaherpesvirus 4;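 also: fluorescence polarization of a Cy5 DNA probe bound by EBNA-1 protein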
Chain of Epstein-Barr nuclear antigen 1 (P03211 whole entry): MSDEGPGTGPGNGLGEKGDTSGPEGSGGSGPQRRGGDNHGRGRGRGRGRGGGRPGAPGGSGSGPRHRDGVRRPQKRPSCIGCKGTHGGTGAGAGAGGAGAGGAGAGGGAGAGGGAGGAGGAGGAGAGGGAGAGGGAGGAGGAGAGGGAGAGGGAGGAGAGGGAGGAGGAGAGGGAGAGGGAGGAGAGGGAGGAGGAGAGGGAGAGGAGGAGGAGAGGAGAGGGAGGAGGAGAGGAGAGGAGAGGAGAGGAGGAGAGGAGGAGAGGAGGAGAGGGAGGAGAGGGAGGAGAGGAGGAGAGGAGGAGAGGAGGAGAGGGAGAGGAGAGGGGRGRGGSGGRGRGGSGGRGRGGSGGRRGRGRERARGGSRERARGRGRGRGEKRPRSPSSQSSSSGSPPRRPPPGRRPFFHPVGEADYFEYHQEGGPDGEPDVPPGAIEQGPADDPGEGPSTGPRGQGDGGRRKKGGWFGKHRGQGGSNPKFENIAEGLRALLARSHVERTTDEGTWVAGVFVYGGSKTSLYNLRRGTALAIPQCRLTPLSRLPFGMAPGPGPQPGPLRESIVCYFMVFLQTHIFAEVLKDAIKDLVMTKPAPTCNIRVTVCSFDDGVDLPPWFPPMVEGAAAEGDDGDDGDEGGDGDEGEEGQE

[5] = target: Lytic switch protein BZLF1 (Epstein-Barr virus (strain B95-8) (HHV-4) (Human herpesvirus 4), UniProt P03206); experiment: inhibition of BZLF1 ZTA DNA binding – biochemical, fluorescence polarization, Epstein-Barr virus, 1536-well, counter-screen for EBNA-1 inhibitor project, dose response (AID 2377); design: species or system human gammaherpesvirus 4;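 also: fluorescence polarization of Cy5-labelled ZRE DNA probe bound by purified Zta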
Chain of Lytic switch protein BZLF1 (P03206 whole entry): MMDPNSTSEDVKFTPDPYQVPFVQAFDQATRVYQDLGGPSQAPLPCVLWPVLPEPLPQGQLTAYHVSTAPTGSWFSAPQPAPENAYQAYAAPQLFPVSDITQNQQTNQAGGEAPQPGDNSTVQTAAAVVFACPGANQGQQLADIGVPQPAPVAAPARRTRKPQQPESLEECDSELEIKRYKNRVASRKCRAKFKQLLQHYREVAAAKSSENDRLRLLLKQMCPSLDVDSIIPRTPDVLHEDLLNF

[6] = Luminescent dose response cell-based high throughput screening assay for inhibitors of the Janus kinase 2 mutant JAK2V617F. [Related pubchem assays: 1446 (Primary screen.), 1521 (Confirmation assay.), 1486 (Counter screen.)]; assay type: functional
[7] = target: Mannose-6-phosphate isomerase (Homo sapiens, UniProt P34949); experiment: MPI inhibition at elevated mannose 6-phosphate – biochemical, fluorescence intensity, high mannose 6-phosphate, primary screen (AID 1220)
Chain of Mannose-6-phosphate isomerase (P34949 whole entry): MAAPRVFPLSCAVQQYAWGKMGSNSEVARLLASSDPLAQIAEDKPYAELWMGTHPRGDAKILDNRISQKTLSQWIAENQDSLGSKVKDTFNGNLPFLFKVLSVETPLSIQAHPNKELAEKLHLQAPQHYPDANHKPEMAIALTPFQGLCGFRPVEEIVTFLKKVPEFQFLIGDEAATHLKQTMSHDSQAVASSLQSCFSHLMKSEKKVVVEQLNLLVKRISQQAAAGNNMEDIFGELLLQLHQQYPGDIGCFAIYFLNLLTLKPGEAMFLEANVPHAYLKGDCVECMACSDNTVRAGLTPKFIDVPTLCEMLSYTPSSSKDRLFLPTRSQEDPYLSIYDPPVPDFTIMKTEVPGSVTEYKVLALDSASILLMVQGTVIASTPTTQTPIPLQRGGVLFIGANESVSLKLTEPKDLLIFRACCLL

Nonstructural protein 1 = Nonstructural protein 1 (Influenza A virus, UniProt Q194T2); assay type: functional, Influenza A virus (A/California/07/2009(H1N1))
Chain of Nonstructural protein 1 (Q194T2 whole entry): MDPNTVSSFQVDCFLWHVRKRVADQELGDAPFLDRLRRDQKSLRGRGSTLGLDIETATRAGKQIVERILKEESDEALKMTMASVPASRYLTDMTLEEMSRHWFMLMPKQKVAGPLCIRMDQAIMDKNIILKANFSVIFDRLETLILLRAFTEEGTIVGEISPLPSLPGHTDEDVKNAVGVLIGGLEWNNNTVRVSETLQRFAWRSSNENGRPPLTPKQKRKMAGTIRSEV

[8] = target: T2, Sphingosine 1-phosphate receptor 2 (Homo sapiens, UniProt O95136); experiment: Dose Response Cell Based Assay for Agonists of the S1P2 Receptor. [Related pubchem assays: 729, 736, 843 ]; assay type: functional
T2 sequence (O95136 whole entry): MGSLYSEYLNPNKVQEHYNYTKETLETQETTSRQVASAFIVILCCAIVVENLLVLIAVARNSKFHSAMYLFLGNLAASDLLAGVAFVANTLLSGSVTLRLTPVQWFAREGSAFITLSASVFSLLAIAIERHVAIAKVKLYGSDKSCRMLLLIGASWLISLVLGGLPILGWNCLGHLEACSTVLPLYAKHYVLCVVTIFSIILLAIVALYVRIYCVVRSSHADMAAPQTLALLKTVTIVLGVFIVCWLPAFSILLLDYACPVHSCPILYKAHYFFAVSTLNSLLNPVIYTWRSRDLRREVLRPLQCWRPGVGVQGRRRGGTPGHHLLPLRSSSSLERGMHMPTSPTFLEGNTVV

[9] = target: Voltage-gated inwardly rectifying potassium channel KCNH2 (Homo sapiens, UniProt Q12809); experiment: concentration-dependent hERG rescue from blockers – cell-based, thallium flux, dose response (AID 2121); assay type: ADME
Chain of Voltage-gated inwardly rectifying potassium channel KCNH2 (Q12809 whole entry): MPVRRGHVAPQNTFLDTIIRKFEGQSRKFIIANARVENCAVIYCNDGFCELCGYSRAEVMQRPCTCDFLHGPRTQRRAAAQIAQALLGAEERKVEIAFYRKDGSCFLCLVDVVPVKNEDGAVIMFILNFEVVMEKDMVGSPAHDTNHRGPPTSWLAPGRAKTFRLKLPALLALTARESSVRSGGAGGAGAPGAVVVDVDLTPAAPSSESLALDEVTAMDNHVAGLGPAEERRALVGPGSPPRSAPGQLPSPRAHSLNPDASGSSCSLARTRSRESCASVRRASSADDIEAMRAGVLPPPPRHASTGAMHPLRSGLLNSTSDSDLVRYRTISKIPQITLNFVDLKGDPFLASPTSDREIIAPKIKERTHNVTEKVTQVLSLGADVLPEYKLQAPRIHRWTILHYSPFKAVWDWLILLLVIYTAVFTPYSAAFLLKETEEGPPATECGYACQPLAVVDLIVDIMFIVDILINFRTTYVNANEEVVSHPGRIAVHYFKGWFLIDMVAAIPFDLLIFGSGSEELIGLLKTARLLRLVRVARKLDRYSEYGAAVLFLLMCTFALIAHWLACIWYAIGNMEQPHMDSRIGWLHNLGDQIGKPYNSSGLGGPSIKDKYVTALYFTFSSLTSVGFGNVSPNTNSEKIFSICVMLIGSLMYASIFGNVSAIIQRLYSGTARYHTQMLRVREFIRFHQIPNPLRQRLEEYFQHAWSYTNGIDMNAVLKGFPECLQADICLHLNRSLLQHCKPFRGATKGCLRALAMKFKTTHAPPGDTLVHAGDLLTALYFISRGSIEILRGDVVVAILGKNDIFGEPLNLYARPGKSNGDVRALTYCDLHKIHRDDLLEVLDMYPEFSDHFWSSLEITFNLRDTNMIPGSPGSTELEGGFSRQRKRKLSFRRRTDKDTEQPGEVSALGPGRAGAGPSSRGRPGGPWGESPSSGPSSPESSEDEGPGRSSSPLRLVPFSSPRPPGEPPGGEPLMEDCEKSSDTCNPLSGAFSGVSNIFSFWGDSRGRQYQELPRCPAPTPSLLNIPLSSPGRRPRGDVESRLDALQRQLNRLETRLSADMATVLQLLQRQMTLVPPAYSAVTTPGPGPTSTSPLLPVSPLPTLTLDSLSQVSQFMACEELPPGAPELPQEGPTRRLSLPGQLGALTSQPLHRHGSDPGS

[10] = target: T3, Short transient receptor potential channel 4 (Mus musculus, UniProt Q9QUQ5); experiment: block of DAMGO-driven TRPC4 calcium entry – cell-based, HEK293 TRPC4/mu-opioid, Fluo-4 calcium, dose response (AID 434942); assay type: functional;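 also: potency of inhibitors blocking the TRPC4 calcium response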
T3 sequence (Q9QUQ5 whole entry): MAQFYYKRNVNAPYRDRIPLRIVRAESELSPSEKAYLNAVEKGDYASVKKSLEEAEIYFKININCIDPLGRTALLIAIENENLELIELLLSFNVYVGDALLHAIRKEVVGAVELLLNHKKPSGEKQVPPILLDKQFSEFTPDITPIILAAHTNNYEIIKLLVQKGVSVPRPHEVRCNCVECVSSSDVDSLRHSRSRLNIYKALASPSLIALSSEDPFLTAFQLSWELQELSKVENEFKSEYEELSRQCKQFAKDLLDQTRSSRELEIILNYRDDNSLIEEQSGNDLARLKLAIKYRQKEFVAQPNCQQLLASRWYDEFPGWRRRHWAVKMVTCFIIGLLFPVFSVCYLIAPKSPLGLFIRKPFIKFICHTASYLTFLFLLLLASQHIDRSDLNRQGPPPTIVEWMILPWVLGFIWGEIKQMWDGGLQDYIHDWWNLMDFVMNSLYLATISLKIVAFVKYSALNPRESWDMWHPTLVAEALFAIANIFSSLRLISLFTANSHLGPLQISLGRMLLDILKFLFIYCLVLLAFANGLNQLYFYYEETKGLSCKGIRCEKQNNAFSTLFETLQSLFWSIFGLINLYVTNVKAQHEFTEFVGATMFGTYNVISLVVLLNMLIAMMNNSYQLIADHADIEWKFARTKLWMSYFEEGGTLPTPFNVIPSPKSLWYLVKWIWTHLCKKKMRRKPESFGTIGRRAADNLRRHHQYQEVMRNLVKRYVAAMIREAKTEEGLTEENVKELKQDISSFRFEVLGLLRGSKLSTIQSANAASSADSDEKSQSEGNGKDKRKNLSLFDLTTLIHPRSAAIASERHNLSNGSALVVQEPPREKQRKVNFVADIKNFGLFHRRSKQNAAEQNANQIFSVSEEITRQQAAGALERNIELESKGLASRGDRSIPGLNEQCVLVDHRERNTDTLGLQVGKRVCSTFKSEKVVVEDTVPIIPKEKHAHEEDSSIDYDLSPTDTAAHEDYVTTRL

[11] = target: T2, Sphingosine 1-phosphate receptor 2; experiment: Dose Response Cell-Based Assay for Agonists of the Sphingosine 1-Phosphate Receptor 2 (S1P2): Purchased Analogues. [Related pubchem assays: 1192, 373, 439 ]; assay type: functional
[12] = target: Sphingosine 1-phosphate receptor 1 (Homo sapiens, UniProt P21453); experiment: Dose Response Cell-Based Assay for Agonists of the Sphingosine 1-Phosphate Receptor 1 (S1P1): Purchased Analogues. [Related pubchem assays: 1192, 373, 439 ]; assay type: functional
Chain of Sphingosine 1-phosphate receptor 1 (P21453 whole entry): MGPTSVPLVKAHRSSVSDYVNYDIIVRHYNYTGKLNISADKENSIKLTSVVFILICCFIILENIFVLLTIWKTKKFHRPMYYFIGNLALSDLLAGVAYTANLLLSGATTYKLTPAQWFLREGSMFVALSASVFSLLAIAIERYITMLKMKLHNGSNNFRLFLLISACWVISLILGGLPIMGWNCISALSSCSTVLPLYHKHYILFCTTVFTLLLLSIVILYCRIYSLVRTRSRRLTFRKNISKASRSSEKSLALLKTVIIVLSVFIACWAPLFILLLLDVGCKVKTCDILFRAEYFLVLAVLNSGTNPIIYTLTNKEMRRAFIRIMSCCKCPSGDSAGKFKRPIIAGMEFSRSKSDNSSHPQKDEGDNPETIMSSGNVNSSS

[13] = target: Sphingosine 1-phosphate receptor 3 (Homo sapiens, UniProt Q99500); experiment: Dose Response Cell-Based Assay for Agonists of the Sphingosine 1-Phosphate Receptor 3 (S1P3): Purchased Analogues. [Related pubchem assays: 373, 439 ]; assay type: functional
Chain of Sphingosine 1-phosphate receptor 3 (Q99500 whole entry): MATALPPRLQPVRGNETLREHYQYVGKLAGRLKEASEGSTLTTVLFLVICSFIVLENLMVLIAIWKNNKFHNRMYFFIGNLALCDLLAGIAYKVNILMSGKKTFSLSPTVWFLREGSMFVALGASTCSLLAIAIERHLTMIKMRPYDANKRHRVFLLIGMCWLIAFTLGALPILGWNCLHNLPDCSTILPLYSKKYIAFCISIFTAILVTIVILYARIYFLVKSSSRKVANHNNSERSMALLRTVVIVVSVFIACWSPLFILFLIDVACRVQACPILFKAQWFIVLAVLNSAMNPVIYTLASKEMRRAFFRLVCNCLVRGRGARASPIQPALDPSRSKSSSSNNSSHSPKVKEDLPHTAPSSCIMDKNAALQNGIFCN

Bcl-2-related protein A1 [14] = target: T4, Bcl-2-related protein A1 (Mus musculus, UniProt Q07440); experiment: displacement of Bid BH3 peptide from Bfl-1 – biochemical, fluorescence polarization, FITC-Bid, mouse, primary screen (AID 432)
T4 sequence (Q07440 whole entry): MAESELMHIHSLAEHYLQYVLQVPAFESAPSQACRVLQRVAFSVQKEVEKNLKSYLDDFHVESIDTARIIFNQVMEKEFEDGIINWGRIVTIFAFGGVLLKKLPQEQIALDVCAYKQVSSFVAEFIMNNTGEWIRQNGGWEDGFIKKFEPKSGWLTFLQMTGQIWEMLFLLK

Bcl-2-related protein A1 [15] = target: T4, Bcl-2-related protein A1; experiment: small-molecule antagonists of Bfl-1/BH3 interaction – biochemical, TR-FRET, mouse Bfl-1, confirmation (AID 621);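 also: TR-FRET binding of GST-Bfl-1 to FITC-labelled Bid peptide via terbium antibody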
fMet-Leu-Phe receptor = fMet-Leu-Phe receptor (Homo sapiens, UniProt P21462); experiment: formyl peptide receptor binders – dose response (AID 519); assay type: functional
Chain of fMet-Leu-Phe receptor (P21462 whole entry): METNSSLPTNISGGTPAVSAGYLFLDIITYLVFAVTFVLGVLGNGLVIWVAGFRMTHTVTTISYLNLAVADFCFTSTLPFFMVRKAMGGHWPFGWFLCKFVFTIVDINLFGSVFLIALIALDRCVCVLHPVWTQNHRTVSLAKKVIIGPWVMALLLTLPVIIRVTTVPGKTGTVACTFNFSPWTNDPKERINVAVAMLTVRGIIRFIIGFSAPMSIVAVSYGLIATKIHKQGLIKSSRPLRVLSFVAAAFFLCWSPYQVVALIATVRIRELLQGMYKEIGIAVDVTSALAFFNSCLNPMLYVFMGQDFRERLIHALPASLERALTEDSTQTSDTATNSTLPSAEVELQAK

## CC(C)(C)OC(=O)N1CC(O)CC1C(=O)OCC(=O)c1ccc(Cl)cc1 (configuration not stated)
[1]
  IC50: > 100 µM (not active)

## CCc1ccc(Cn2nnc(C(=O)Nc3ccc(OC)cc3OC)c2N)cc1
[2]
  IC50: > 43.8 µM (not active)
[3]
  IC50: > 43.8 µM (not active)

## COc1cccc(OC)c1C(=O)Nc1nc2cc3c(cc2s1)OCO3
[4]
  IC50: 15.5 µM (not active)
[5]
  IC50: > 111 µM (not active)

## Cc1ccc(Nc2nc(N)nc(CCl)n2)cc1
[6]
  IC50: 1.75 µM (active)

## COc1ccc(Nc2c([N+](=O)[O-])ccc3c2=NC2(CCCCC2)N=3)cc1
[7]
  IC50: > 50 µM (not active)
Nonstructural protein 1
  IC50: 11.1 µM (active)

## CCOC(=O)CN(C(=O)CSc1nnc(COc2ccc(OC)cc2)n1C)c1ccccc1
[8]
  EC50: > 50 µM (not active)

## O=C(O)c1ccc(Cl)cc1Nc1nc2cc(Cl)ccc2o1
[9]
  EC50: 11.3 µM (active) and 12 µM (active)
[10]
  EC50: 5.31 µM (active)

## Cc1cc(C(=O)N2C(C)CCCC2C)no1 (configuration not stated)
[11]
  EC50: > 10 µM (not active)
[12]
  EC50: > 50 µM (not active)
[13]
  EC50: > 50 µM (not active)

## O=C(C1=C(O)C(=O)N(c2ncccn2)C1c1cccc(Cl)c1)c1ccco1 (configuration not stated)
Bcl-2-related protein A1 [14]
  IC50: > 100 µM (not active)
Bcl-2-related protein A1 [15]
  IC50: > 100 µM (not active)
fMet-Leu-Phe receptor
  Ki: > 66.7 µM (inactive)
